Measurements: US9975860B2, “Anti-angiogenic compounds” (UNIVERSITY COLLEGE DUBLIN—NATIONAL UNIVERSITY OF IRELAND, …, priority 2014, dated 2018)
Entries after “also recorded” stand apart in the source; their conditions may differ.

Tests used:
SMUG1 = assay: qPCR DNA repair gene expression in OE33R: SMUG1; type: cell-based, human; settings: 10 μM, 24 hours
Description: (§1) OE33P radiosensitive oesophageal adenocarcinoma cells and OE33R radioresistant oesophageal adenocarcinoma cells were used to test the effects of the compound 4 on DNA repair gene expression. Cells were maintained in RPMI media supplemented with 10% foetal calf serum, penicillin (100 U/ml) and streptomycin (100 μg/ml). A total of 300,000 cells, in 2 ml media, were seeded per well in 6 well plates and left to incubate for 24 hours. The media was replaced with solutions containing 10 μM of compound 4 or the equivalent volume of DMSO vehicle control. After 24 hours of treatment, RNA was extracted from the cells and converted to cDNA. qPCR was then conducted and expression of MMS19, SMUG1 PARP1 and MLH1 was quantified, […]

mouse aortic ring = assay: Ex vivo mouse aortic ring assay (sprout formation); settings: 10 μM; C57/BL6 mouse aortic rings in matrigel; vs 0.1% DMSO; hydrochloride
Description: Aortae from sex matched C57/BL6 littermates were cleansed of adipose tissue, cut into 2 mm rings and immersed in matrigel. Aortic rings (6 per experiment) were treated with 0.1% DMSO (vehicle control/VC) or with 10 μM of Compound 4, Compound 12, Compound 15 or Compound 20. Sprouts from the perimeter of the aortic ring were counted and quantified as percentage of vehicle control (VC).

PARP1 = assay: qPCR DNA repair gene expression in OE33P: PARP1; type: cell-based, human; settings: 10 μM, 24 hours
Description: as §1

MMS19 [1] = assay: qPCR DNA repair gene expression in OE33P: MMS19; type: cell-based, human; settings: 10 μM, 24 hours, p<0.01
Description: as §1

MLH1 [2] = assay: qPCR DNA repair gene expression in OE33R: MLH1; type: cell-based, human; settings: 10 μM, 24 hours
Description: as §1

[3] = system: OE33P radiosensitive oesophageal adenocarcinoma cells; assay: Seahorse OCR (oxidative phosphorylation) in OE33P; type: cell-based, human; settings: 10 μM, 24 hours
Description: (§2) OE33P radiosensitive and OE33R radioresistant oesophageal adenocarcinoma cells were used to test the effects of the compound 4 on oxidative phosphorylation. Cells were maintained in RPMI media supplemented with 10% foetal calf serum, penicillin (100 U/ml) and streptomycin (100 μg/ml). A total of 11,000 OE33P cells and 13,000 OE33R cells, in 100 μl media, were seeded per well in 24 well plates and left to incubate for 24 hours, with an additional 150 μl media added after 5 hours. The media was replaced with solutions containing 10 μM of compound 4 or the equivalent volume of DMSO vehicle control. After 24 hours of treatment, media was replaced with modified DMEM supplemented with 0.5 mM glucose. Rates of oxidative phosphorylation were determined using Seahorse Biosciences metabolism technology. The media was disposed and the cells washed with PBS. The cells were fixed with 1% glutaraldehyde for 15 minutes and then stained with crystal violet for 30 minutes. The plates were blotted and dried overnight. The cells were resuspended with 1% TritonX-100 and shaken for 15 minutes. The absorbance was read on a spectrophotometer at 595 nm Rates of oxidative phosphorylation were then normalised to cell number.

MMS19 [4] = assay: qPCR DNA repair gene expression in OE33R: MMS19; type: cell-based, human; settings: 10 μM, 24 hours
Description: as §1

[5] = system: OE33R radioresistant oesophageal adenocarcinoma cells; assay: Seahorse OCR (oxidative phosphorylation) in OE33R; type: cell-based, human; settings: 10 μM, 24 hours, p<0.05
Description: as §2

MLH1 [6] = assay: qPCR DNA repair gene expression in HT29-LUC: MLH1; type: cell-based, human; settings: 10 μM, 24 hours, p<0.01
Description: HT29-LUC radioresistant colorectal adenocarcinoma cells were used to test the effects of the compound 4 on DNA repair gene expression. Cells were maintained in McCoy's 5A media supplemented with 10% foetal calf serum. A total of 300,000 cells, in 2 ml media, were seeded per well in 6 well plates and left to incubate for 24 hours. The media was replaced with solutions containing 10 μM of compound 4 or the equivalent volume of DMSO vehicle control. After 24 hours of treatment, RNA was extracted from the cells and converted to cDNA. qPCR was then conducted.

[7] = system: OE33P radiosensitive oesophageal adenocarcinoma cells; assay: Seahorse ECAR (glycolysis) in OE33P; type: cell-based, human; settings: 10 μM, 24 hours
Description: as §2, with “radiosensitive oesophageal adenocarcinoma cells” for “radiosensitive”, “on glycolysis.” for “on oxidative phosphorylation.”, “11,000” for “11,000 OE33P”, “cells (OE33P) or” for “cells and”, “13,000 cells (OE33R),” for “13,000 OE33R cells,”, “of glycolysis” for “of oxidative phosphorylation”

[8] = system: OE33R radioresistant oesophageal adenocarcinoma cells; assay: Seahorse ECAR (glycolysis) in OE33R; type: cell-based, human; settings: 10 μM, 24 hours
Description: as §2, with “radiosensitive oesophageal adenocarcinoma cells” for “radiosensitive”, “on glycolysis.” for “on oxidative phosphorylation.”, “11,000” for “11,000 OE33P”, “cells (OE33P) or” for “cells and”, “13,000 cells (OE33R),” for “13,000 OE33R cells,”, “of glycolysis” for “of oxidative phosphorylation”

[9] = system: HT29-LUC radioresistant colorectal adenocarcinoma cells; assay: Seahorse ECAR (glycolysis) in HT29-LUC; type: cell-based, human; settings: 10 μM, 24 hours
Description: HT29-LUC radioresistant colorectal adenocarcinoma cells were used to test the effects of compound 4 on glycolysis. Cells were maintained in McCoy's 5A media supplemented with 10% foetal calf serum. A total of 20,000 cells, in 100 μl media, were seeded per well in 24 well plates and left to incubate for 24 hours, with an additional 150 μl media added after 5 hours. The media was replaced with solutions containing 10 μM of compound 4 or the equivalent volume of DMSO vehicle control. After 24 hours of treatment, media was replaced with modified DMEM supplemented with 0.5 mM glucose. Rates of glycolysis were determined using Seahorse Biosciences metabolism technology. The media was disposed and the cells washed with PBS. The cells were fixed with 1% glutaraldehyde for 15 minutes and then stained with crystal violet for 30 minutes. The plates were blotted and dried overnight. The cells were resuspended with 1% TritonX-100 and shaken for 15 minutes. The absorbance was read on a spectrophotometer at 595 nm Rates of glycolysis were then normalised to cell number.

Cl.Oc1ccccc1/C=C/c1cnccn1 [Compound 4, (E)-2-[2-(Pyrazin-2-yl)vinyl]phenol hydrochloride]
expression of SMUG1 (qPCR) (SMUG1): not significantly different to control
angiogenesis (sprout formation) in aortic rings (mouse aortic ring): block angiogenesis (sprout formation); also recorded: inhibit the formation of sprouts in a statistically significant manner
expression of PARP1 (qPCR) (PARP1): not significantly different to control
expression of MMS19 (qPCR) (MMS19 [1]): significantly reduces the expression of MMS19
expression of MLH1 (qPCR) (MLH1 [2]): not significantly different to control
oxygen consumption rate (OCR), a measure of oxidative phosphorylation [3]: does not significantly reduce oxygen consumption rate
expression of MMS19 (qPCR) (MMS19 [4]): not significantly different to control
oxygen consumption rate (OCR), a measure of oxidative phosphorylation [5]: does significantly reduce OCR
expression of MLH1 (qPCR) (MLH1 [6]): significantly reduces the expression of MLH1
extracellular acidification rate (ECAR), a measure of glycolysis [7]: does not significantly reduce extraceullar acidification rate
extracellular acidification rate (ECAR), a measure of glycolysis [8]: does not significantly reduce extraceullar acidification rate
extracellular acidification rate (ECAR), a measure of glycolysis [9]: does not significantly reduce extraceullar acidification rate
